We go through two molecules from patent EP4444311B1, “GI[…] TREATMENT OF CHRONIC HEPATITIS B VIRUS INFECTIONS” (priority 2021, dated 2023).

Data set [1] concerns HBs protein (S-HBs, M-HBs, and L-HBs) mRNA. Description: Knockdown of HBs protein mRNA expression levels in HepG2.2.15 cells (RT-qPCR relative to GAPDH mRNA). As to conditions: for IC50: Hepatitis B virus, read-out: Estimated IC50 values (knockdown of HBs protein mRNA expression levels); for knockdown effects on HBs protein mRNA expression levels: day 6 post-first exposure (data not shown); for knockdown HBs protein mRNA expression levels (in words): library screen, 50 µM, day 4 post-first exposure, HepG2.2.15 cells. The class given is cell-based, hepatitis B virus. As for the experimental part:
HepG2.2.15 cells (seeded at a density of 4 x 10^4 cells per well in 96-well plates) were cultured at 37 °C in humidified air with 5 % CO2. Once cells had reached confluence, initial screening of ginsenoside library compounds was performed with each compound added individually to culture media at a final concentration of 50 µM. Cells were then further incubated at 37 °C under 5 % CO2. At day 4 post-first exposure, cells were then collected to determine the percentage knockdowns of HBs protein mRNA expression levels relative to GAPDH mRNA levels (as described below).
Thereafter, more extensive studies were performed with HepG2.2.15 cells as follows. After cells were grown to confluence, as above, culture media were replaced with media containing one of the selected ginsenosides as appropriate, or else with LMV or ginsenoside/LMV combinations at the indicated concentrations. Cells were then further incubated at 37 °C under 5 % CO2. At the indicated times (at day 2, 4, or 6 post-first exposure; or at just day 5 post-first exposure), cell and culture media samples respectively were collected for subsequent detection of HBs protein mRNA expression levels or secreted HBV DNA and HBsAg levels (as described below).
RNA extraction from cells was performed using the QIAamp® Viral RNA Mini kit (Qiagen, Germany), according to manufacturer's instructions. RNA integrity was evaluated by electrophoresis on 1% agarose gels, and quantified using a ND1000 spectrophotometer (NanoDrop Technologies, Germany). Following this, extracted RNA (1 µg) was used to synthesize cDNA using a SensiFAST™ cDNA Synthesis Kit (Meridian Bioscience Inc, Cincinnati, OH, USA) according to manufacturer's instructions. RT-qPCR reactions were then performed with qPCR 2xSYBR master mix (Top-Bio, Czech Republic) on a LightCycler® real-time PCR system (Roche, Switzerland), using the indicated primers specific for amplification of HBs protein (S-HBs, M-HBs, and L-HBs) and GAPDH control mRNAs (Table 1). PCR amplification was performed on multiple RT-qPCR reaction mixtures (each 20 µl) located in individual wells of a 96-well optical-grade PCR plate, sealed with optical sealing tape (Bio-Rad Laboratories, Hercules, CA, USA). Each RT-qPCR reaction mixture comprised synthesized cDNA (2 µl) (diluted 1:1), appropriate primers (each 0.4 µl, […]), 2xSYBR green PCR master mix (10 µl) and ddH2O (7.2 µl). PCR amplification involved one cycle at 94 °C (5 min), followed by 40 cycles of denaturation at 94 °C (20 s), then annealing and extension at 57 °C for 20 s, plus 72 °C for 30 s. Finally, melting curve analyses were performed by slowly heating the PCR reaction mixtures from 65 to 95 °C, in increments of 0.5 °C every 5 s, with simultaneous measurements of the SYBR green signal intensities. Percentage knockdowns of HBs protein mRNA expression levels were determined relative to GAPDH mRNA levels using calculated 2^-ΔΔct values [Livak, K.J; Schmittgen, T.D. Analysis of relative gene expression data using real-time quantitative PCR and the 2(-Delta Delta C(T)) Method. Methods 2001, 25, 402-8]. Three biological replicates were performed for each data point where fold change (FC) ≥ 2 is considered statistically significant. Table 1. Primers for RT-qPCR detection of specific mRNAs

The subject of data set [2] is HepG2.2.15 cells. The data set is described as follows: Cytotoxicity assay (CCK-8 cell viability). It is filed as cell-based, human. The note with it: 3.12-100 µM; for HepG2.2.15 cytotoxicity: day 2 and 4 post-first exposure; for cell viabilities: day 6 post-first exposure, unrelated to ginsenoside doses, non-specific decline. As to the method: HepG2.2.15 cells (seeded at a density of 4 x 10^4 cells per well in 96-well plates) were cultured at 37 °C in humidified air with 5 % CO2. After cells reached 70-80 % confluence, initial screening of ginsenoside library compounds was performed with each compound added to cultured HepG2.2.15 cell at a final concentration of 50 µM. Cells were then further incubated at 37 °C under 5 % CO2. At day 4 post-first exposure of cells to each ginsenoside library compound, percentage cell viabilities were determined by CCK-8 (Dojindo Laboratories, Kumamoto, Japan) used according to manufacturer's instructions. Thereafter, cytotoxicity studies were performed with appropriate quantities of selected ginsenosides (Rg6, Rh4, or Rb3) added to cultured HepG2.2.15 cells at final concentrations of 100, 50, 25, 12.5, 6.25 or 3.12 µM. Cells were then incubated at 37 °C under 5 % CO2. At day 2, 4, and 6 post-first exposure of cells to the selected ginsenosides, percentage cell viabilities were determined by CCK-8 assay as above. Final cytotoxicity studies were performed with combinations of ginsenoside compounds (Rg6, Rh4 or Rb3) (at 80, 40, 20, 10, 5 or 2.5 µM) and LMV (at 0.08, 0.04, 0.02, 0.01, 0.005 or 0.0025 µM) respectively added to cultured HepG2.2.15 cells. Once more, cells were further incubated at 37 °C under 5 % CO2. At day 5 post-first exposure of cells to ginsenoside/LMV combinations, percentage cell viabilities were determined by CCK-8 assay once again.

Read-outs that look alike come from different tables or passages of the source.

What is called IC50 is the concentration needed to halve the response being measured. Regarding `CC(C)=CCC[C@](C)(O[C@@H]1O[C@H](CO[C@@H]2OC[C@@H](O)[C@H](O)[C@H]2O)[C@@H](O)[C@H](O)[C@H]1O)[C@H]1CC[C@]2(C)[C@@H]1[C@H](O)C[C@@H]1[C@@]3(C)CC[C@H](O[C@@H]4O[C@H](CO)[C@@H](O)[C@H](O)[C@H]4O[C@@H]4O[C@H](CO)[C@@H](O)[C@H](O)[C@H]4O)C(C)(C)[C@@H]3CC[C@]12C` [Rb3], the IC50 in data set [1] (HepG2.2.15, 48 h) is 4.1 µM. Further, in data set [1] (HepG2.2.15, 96 h), the IC50 was 3.2 µM. In addition, in data set [1], the “knockdown effects on HBs protein mRNA expression levels” value is “wear off completely” and the “knockdown HBs protein mRNA expression levels (in words)” value is “especially effective”. Further, in data set [2], the HepG2.2.15 cytotoxicity result was “no significant HepG2.2.15 cytotoxicity” and the cell viabilities entry is recorded as “Slightly reduced cell viabilities”.
Consider `C=C(CCC=C(C)C)[C@H]1CC[C@]2(C)[C@@H]1[C@H](O)C[C@@H]1[C@@]3(C)CC[C@H](O)C(C)(C)[C@@H]3[C@@H](O[C@@H]3O[C@H](CO)[C@@H](O)[C@H](O)[C@H]3O[C@@H]3O[C@@H](C)[C@H](O)[C@@H](O)[C@H]3O)C[C@]12C` [Rg6], for which, in data set [1] (HepG2.2.15, 48 h), the IC50 is 5.1 µM. Besides, the IC50 in data set [1] (HepG2.2.15, 96 h) was 3.2 µM. In addition, in data set [1], the “knockdown effects on HBs protein mRNA expression levels” value was “wear off completely” and the “knockdown HBs protein mRNA expression levels (in words)” value is “especially effective”. In data set [2], the HepG2.2.15 cytotoxicity entry is given as “no significant HepG2.2.15 cytotoxicity” and the cell viabilities result is reported as “Slightly reduced cell viabilities”.
